Publication PMC10350922, “Allosteric Inhibitors of Macrophage Migration Inhibitory Factor (MIF) Interfere with Apoptosis-Inducing Factor (AIF) Co-Localization to Prevent Parthanatos” (Journal of Medicinal Chemistry, 2023)

tested on: HeLa cells; assay: Cell viability (MTS) assay, MNNG-induced parthanatos; format: cell-based; settings: MTS assay

Row | Compound | Protective effect in MNNG-induced parthanatos
1 | COc1ccc(N2Cc3ccc(O)cc3OC2=O)cc1OC [ZP143, reference compound] | no protective effect

target: MIF; assay: not given; set-up: method as in PMID 32940040; settings: competitive MIF tautomerase inhibitor; cited from earlier work

Row | Compound | Ki [nM]
2 | COc1ccc(N2Cc3ccc(O)cc3OC2=O)cc1OC [ZP143, reference compound] | 100 ± 10

target: T1, MIF (Homo sapiens, UniProt P14174); assay: MIF tautomerase activity assay (PP substrate, UV absorbance at 300 nm); format: biochemical; settings: 10 μM inhibitor; activity without inhibitor set to 100%; mean, n = 3
T1 construct: made in house; host or cells: Escherichia coli BL21, pET-20b(p) plasmid
T1 sequence (P14174 2-115 limits assumed): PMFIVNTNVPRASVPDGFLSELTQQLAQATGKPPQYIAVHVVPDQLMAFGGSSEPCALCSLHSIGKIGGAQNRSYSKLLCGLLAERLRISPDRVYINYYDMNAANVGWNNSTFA
Protocol: Recombinant human MIF with a C-terminal His-tag was expressed and purified following methods published previously.[47] The inhibitory potency for MIF tautomerase activity of the 1-phenyl-1H-1,2,3-triazole-4-carboxamides was measured after pre-incubation with MIF. The MIF-catalyzed PP tautomerization was measured by the corresponding change in UV absorbance over the first 3 min of the reaction.[48] Initial screening of the inhibitory potency was performed at 10 μM inhibitor concentration.
Inhibition of the tautomerase activity and kinetics of MIF was measured using […] (PP) as a substrate. A stock solution was prepared by mixing PP in 50 mM ammonium acetate buffer and adjusted to pH 6.0 using 1.0 M NaOH to provide a concentration of 20 mM. This solution was incubated overnight at 37 °C to allow equilibration of the keto and enol forms and then stored at 4 °C. For the assay, MIF stock solution (10 μL, 70 μM) was diluted in 20 mL of the boric acid buffer (435 mM H3BO3, 1 mM EDTA, pH 6.2) to provide 35 nM solution. The enzyme activity was determined by premixing 192 μL of the MIF dilution with 8 μL of the inhibitors dissolved in DMSO (1 mM). This mixture was preincubated for 10 min. Next, 50 μL of the mixture was mixed with 50 μL of 2 mM PP solution in ammonium acetate buffer. Subsequently, MIF tautomerase activity was monitored by the formation of the borate–enol complex, which was measured by the increase in UV absorbance at 300 nm. The increase in UV absorbance was measured over the first 10 min of incubation using a BioTek Synergy H1 Hybrid plate reader. MIF tautomerase activity in the presence of blank DMSO was set to 100% enzyme activity. […] Data from the first 3 min were used to calculate the initial velocities. All of the graphs were prepared in GraphPad Prism.
For the IC50 measurements, 1 mM solutions of the compounds were double-diluted 10 times in DMSO and subsequently, the MIF tautomerase activity was determined by premixing 190 μL of the MIF dilution with 10 μL of the inhibitors. This mixture was preincubated for 10 min and mixed with the 2 mM PP solution as described above.

Row | Compound | remaining activity at 10 µM [%] | Activity of MIF (%)
3 | O=C(Nc1ccc(F)cc1)c1cn(-c2ccccc2)nn1 [Compound 6b, N-(4-Fluorophenyl)-1-phenyl-1H-1,2,3-triazole-4-carboxamide] | 65 | 
4 | O=C(Nc1ccc(Br)cc1)c1cn(-c2ccccc2)nn1 [Compound 6c, N-(4-Bromophenyl)-1-phenyl-1H-1,2,3-triazole-4-carboxamide] | 37 | 
5 | COc1ccccc1-n1cc(C(=O)Nc2ccc(Cl)cc2)nn1 [Compound 6d, N-(4-Chlorophenyl)-1-(2-methoxyphenyl)-1H-1,2,3-triazole-4-carboxamide] | 87 | 
6 | COc1ccccc1-n1cc(C(=O)NC(C)c2ccc(Br)cc2)nn1 (centres unmarked) [Compound 6e, N-(1-(4-Bromophenyl)ethyl)-1-(2-methoxyphenyl)-1H-1,2,3-triazole-4-carboxamide] | 79 | 
7 | O=C(NCCc1ccccc1Cl)c1cn(-c2ccc(Cl)c(Cl)c2)nn1 [Compound 6h, N-(2-Chlorophenethyl)-1-(3,4-dichlorophenyl)-1H-1,2,3-triazole-4-carboxamide] | 65 | 
8 | O=C(NC1CCCC1)c1cn(-c2ccc(Cl)c(Cl)c2)nn1 [Compound 6k, N-Cyclopentyl-1-(3,4-dichlorophenyl)-1H-1,2,3-triazole-4-carboxamide] | 50 | 
9 | O=C(NCc1ccco1)c1cn(-c2ccc(Cl)c(Cl)c2)nn1 [Compound 6l, 1-(3,4-Dichlorophenyl)-N-(furan-2-ylmethyl)-1H-1,2,3-triazole-4-carboxamide] | 38 | 
10 | N#Cc1cc(Cl)ccc1-n1cc(C(=O)Nc2ccc(F)cc2)nn1 [Compound 6n, 1-(4-Chloro-2-cyanophenyl)-N-(4-fluorophenyl)-1H-1,2,3-triazole-4-carboxamide] | 47 | 
11 | O=C(NCc1ccc(Cl)cc1)c1cn(-c2ccc(Cl)cc2)nn1 [Compound 6r, N-(4-Chlorobenzyl)-1-4-chlorophenyl-1H-1,2,3-triazole-4-carboxamide] | 57 | 
12 | O=C(NCCc1ccccc1Cl)c1cn(-c2cccc(Cl)c2)nn1 [Compound 6t, N-(2-Chlorophenethyl)-1-(3-chlorophenyl)-1H-1,2,3-triazole-4-carboxamide] | 66 | 
13 | O=C(NCCc1ccccc1)c1cn(-c2cccc3ncccc23)nn1 [Compound 6u, N-Phenethyl-1-(quinolin-5-yl)-1H-1,2,3-triazole-4-carboxamide] | 66 | 
14 | Cc1ccc(-n2cc(C(=O)NCc3ccccc3)nn2)cc1C [Compound 6v, N-Benzyl-1-(3,4-dimethylphenyl)-1H-1,2,3-triazole-4-carboxamide] | 21 | 
15 | CC(NC(=O)c1cn(-c2ccc(C(=O)NC3CC3)cc2)nn1)c1ccccc1 (centres unmarked) [Compound 6w, 1-(4-(Cyclopropylcarbamoyl)phenyl)-N-(1-phenylethyl)-1H-1,2,3-triazole-4-carboxamide] | 39 | 
16 | COC(=O)CC1CC(c2ccc(O)cc2)=NO1 (centres unmarked) [ISO-1, reference compound] | 60 | 
17 | N-(4-Bromophenyl)-1-(4-cyanophenyl)-1H-1,2,3-triazole-4-carboxamide [Compound 6o] |  | 44

Continued, in another order:

Row | remaining activity at 10 µM [%] | Compound | Activity of MIF (%)
18 | 84 | O=C(Nc1ccccc1)c1cn(-c2ccccc2)nn1 [Compound 6a, N,1-Diphenyl-1H-1,2,3-triazole-4-carboxamide] | 
19 | 50 | CCc1ccc(-n2cc(C(=O)Nc3cccc(F)c3)nn2)cc1 [Compound 6f, 1-(4-Ethylphenyl)-N-(3-fluorophenyl)-1H-1,2,3-triazole-4-carboxamide] | 
20 | 54 | Cc1ccc(-n2cc(C(=O)Nc3ccc(F)cc3)nn2)cc1C [Compound 6g, 1-(3,4-Dimethylphenyl)-N-(4-fluorophenyl)-1H-1,2,3-triazole-4-carboxamide] | 
21 | 90 | O=C(CCc1ccco1)NCc1cn(-c2ccc(Cl)c(Cl)c2)nn1 [Compound 6i] | 
22 | 58 | COC(=O)C(Cc1ccccc1)NC(=O)c1cn(-c2ccc(Cl)c(Cl)c2)nn1 (centres unmarked) [Compound 6j, Methyl-(1-(3,4-dichlorophenyl)-1H-1,2,3-triazole-4-carbonyl)phenylalaninate] | 
23 | 80 | COc1ccc(CNC(=O)c2cn(-c3ccc(Cl)c(Cl)c3)nn2)cc1OC [Compound 6m, 1-(3,4-Dichlorophenyl)-N-(3,4-dimethoxybenzyl)-1H-1,2,3-triazole-4-carboxamide] | 
24 | 45 | CCc1ccc(NC(=O)c2cn(-c3ccc(F)cc3[N+](=O)[O-])nn2)cc1 [Compound 6p, N-(4-Ethylphenyl)-1-(4-fluoro-2-nitrophenyl)-1H-1,2,3-triazole-4-carboxamide] | 
25 | 58 | O=C(NCc1ccc(Cl)cc1)c1cn(-c2ccc(F)cc2)nn1 [Compound 6q, N-(4-Chlorobenzyl)-1-(4-fluorophenyl)-1H-1,2,3-triazole-4-carboxamide] | 
26 | 40 | O=C(NCCc1ccccc1)c1cn(-c2cccc(Cl)c2)nn1 [Compound 6s, 1-(3-Chlorophenyl)-N-phenethyl-1H-1,2,3-triazole-4-carboxamide] | 
27 | 14 | O=C(Nc1ccccc1)c1ccc(-n2cc(C(=O)NCc3ccccc3)nn2)cc1 [Compound 6x, N-Benzyl-1-(4-(phenylcarbomyl)phenyl)-1H-1,2,3-triazole-4-carboxamide] | 

same assay, conditions: PP as substrate, 10 min preincubation; read-out: IC50, inhibition of MIF tautomerase activity

Row | IC50 [nM] | Compound
28 | 6500 ± 400 | Cc1ccc(-n2cc(C(=O)NCc3ccccc3)nn2)cc1C [Compound 6v, N-Benzyl-1-(3,4-dimethylphenyl)-1H-1,2,3-triazole-4-carboxamide]
29 | 2500 ± 100 | O=C(Nc1ccccc1)c1ccc(-n2cc(C(=O)NCc3ccccc3)nn2)cc1 [Compound 6x, N-Benzyl-1-(4-(phenylcarbomyl)phenyl)-1H-1,2,3-triazole-4-carboxamide]
